Data from patent publication US20250051347A1, “BIFUNCTIONAL CHIMERIC HETEROCYCLIC COMPOUND AND USE THEREOF AS ANDROGEN RECEPTOR DEGRADER” (Hinova Pharmaceuticals, Inc., priority 2021, published 2025).

Legend:
[1] = molecular target: T1, androgen receptor (AR) splicing variant AR-v7 (Homo sapiens, UniProt P10275); assay: Degradation activity on androgen receptor splicing variant AR-v7 in 22RV1 cells (ELISA); format: cell-based; conditions: AR-v7 degradation in 22RV1 cells, 48 h
T1 construct: The degradation activity of compounds on AR-v7 in 22RV1 cells; host or cells: 22RV1 cells
T1 sequence (P10275 1-644 isoform P10275-3): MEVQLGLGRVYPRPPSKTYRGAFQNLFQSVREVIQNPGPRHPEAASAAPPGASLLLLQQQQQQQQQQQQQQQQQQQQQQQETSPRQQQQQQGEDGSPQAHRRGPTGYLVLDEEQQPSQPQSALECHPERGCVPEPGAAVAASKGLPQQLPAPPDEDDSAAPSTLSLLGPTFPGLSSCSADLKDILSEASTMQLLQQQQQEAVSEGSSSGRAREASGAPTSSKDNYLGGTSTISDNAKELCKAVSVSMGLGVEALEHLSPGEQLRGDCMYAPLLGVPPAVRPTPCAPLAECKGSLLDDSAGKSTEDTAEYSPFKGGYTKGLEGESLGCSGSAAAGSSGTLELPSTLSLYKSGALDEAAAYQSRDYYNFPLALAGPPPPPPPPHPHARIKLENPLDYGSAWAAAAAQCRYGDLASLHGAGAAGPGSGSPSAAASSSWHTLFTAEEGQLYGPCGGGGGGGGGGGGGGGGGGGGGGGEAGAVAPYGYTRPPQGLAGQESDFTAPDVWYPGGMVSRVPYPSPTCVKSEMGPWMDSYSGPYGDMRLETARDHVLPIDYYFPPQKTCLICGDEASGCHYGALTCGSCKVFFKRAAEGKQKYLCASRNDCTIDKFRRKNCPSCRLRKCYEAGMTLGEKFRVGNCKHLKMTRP

[2] = Pharmacokinetics in mice (plasma exposure after oral administration); format: in vivo; conditions: mouse, ICR mice, oral (i.g.) 3 mg/kg, read-out: After oral administration of 3 mg/kg, mouse plasma exposure AUCinf
Protocol: • LC-20AD high performance liquid chromatography (SHIMADZU, Japan) • API4000 triple quadrupole mass spectrometer (Applied Biosystem, USA) • Phenix Winnolin Pharmacokinetic software (Version 6.3, Certara, USA) • High speed freezing centrifuge (Thermo Fisher Scientific) • Analytical balance (Sartorius, SECURA225D-ICN) • ICR mice (Chengdu Dossy Experimental Animals CO., LTD.)
A suitable amount of drug was accurately weighed, and then the medium (5% DMSO, 15% HS-15, 80% DSW) was added to prepare the solution at a concentration of 0.1 mg/ml (i.v.) and 0.3 mg/ml (i.g.).
18 healthy adult ICR mice were divided into two groups (9 mice for i.v. group; 9 mice for i.g. group), and administered by tail vein or by gavage after fasting overnight (free drinking water); using the satellite blood collection method, 3 animals were collected at each time point, and then 0.1 ml of blood obtained at different time points was anticoagulated with EDTA-K2, centrifuged at 4° C. for 5 min to separate the plasma, and stored at −80° C. for detection. The sampling time points after i.v. administration were 5 min, 15 min, 0.5 h, 1 h, 2 h, 4 h, 8 h, 12 h, and 24 h; while the sampling time points for i.g. group were before administration (0 h) as well as 0.5 h, 1 h, 2 h, 4 h, 6 h, 8 h, 12 h, and 24 h after administration. Then, the drug concentration in plasma was determined by LC/MS/MS.

Row | DC50 ([1]; class symbols) | AUC(0-inf) [2] | DC50 ([1]; numeric values) | SMILES
1 | 11 to 100 nM | 5000 to 30000 ng·h/mL |  | O=C1CCC(N2C(=O)c3ccc(N[C@H]4C[C@H](Oc5ccc(Oc6ccc(Oc7ncc(-n8nccn8)cn7)cc6)cc5)C4)cc3C2=O)C(=O)N1 (stereo partly drawn) [Example 122, 5-(((trans)-3-(4-(4-((5-(2H-1,2,3-triazol-2-yl)pyrimidin-2-yl)oxy)phenoxy)phenoxy)cyclobutyl)amino)-2-(2,6-dioxopiperidin-3-yl)isoindolin-1,3-dione]
2 | 11 to 100 nM | 5000 to 30000 ng·h/mL |  | CC(C)(c1ccc(Oc2ccnc(-n3nccn3)c2)cc1)c1ccc(O[C@H]2C[C@H](Nc3ccc4c(c3)C(=O)N(C3CCC(=O)NC3=O)C4=O)C2)cc1 (some centres unmarked) [Example 164]
3 | 11 to 100 nM | 5000 to 30000 ng·h/mL |  | Cc1nnc(-c2ccnc(Oc3ccc(C(C)(C)c4ccc(O[C@H]5C[C@H](Nc6ccc7c(c6)C(=O)N(C6CCC(=O)NC6=O)C7=O)C5)cc4)cc3)n2)o1 (some centres unmarked) [Example 171]
4 | 11 to 100 nM | 100 to 1000 ng·h/mL |  | CC(C)(c1ccc(OCc2ccnc(O[C@@H]3CCNC3)n2)cc1)c1ccc(O[C@H]2C[C@@H](Nc3ccc4c(c3)C(=O)N(C3CCC(=O)NC3=O)C4=O)C2)cc1 (some centres unmarked) [Example 242]
5 | 11 to 100 nM | 1000 to 5000 ng·h/mL |  | Cc1noc(-c2cccc(COc3ccc(C(C)(C)c4ccc(O[C@H]5C[C@H](Nc6ccc7c(c6)C(=O)N(C6CCC(=O)NC6=O)C7=O)C5)cc4)cc3)n2)n1 (some centres unmarked) [Example 282]
6 | < 10 nM | 5000 to 30000 ng·h/mL |  | Cc1nnc(-c2ccc(Oc3ccc(C(C)(C)c4ccc(O[C@H]5C[C@H](Nc6ccc7c(c6)C(=O)N(C6CCC(=O)NC6=O)C7=O)C5)cc4)cc3)cc2)o1 (some centres unmarked) [Example 322, 2-(2,6-dioxopiperidin-3-yl)-5-((1r,3r)-3-(4-(2-(4-(4-(5-methyl-1,3,4-oxadiazol-2-yl)phenoxy)phenyl)propan-2-yl)phenoxy)cyclobutyl)aminoisoindolin-1,3-dione]
7 | 11 to 100 nM | 5000 to 30000 ng·h/mL |  | Cc1nnc(-c2ccc(Oc3ccc(C(C)(C)c4ccc(O[C@H]5C[C@H](Nc6ccc7c(c6)C(=O)N(C6CCC(=O)NC6=O)C7=O)C5)cc4)cc3)nn2)o1 (some centres unmarked) [Example 330]
8 | 11 to 100 nM | 5000 to 30000 ng·h/mL |  | C=CC(c1ccc(Oc2ncc(-n3nccn3)cn2)cc1)c1ccc(O[C@H]2C[C@H](Nc3ccc4c(c3)C(=O)N(C3CCC(=O)NC3=O)C4=O)C2)cc1 (some centres unmarked) [Example 370, 5-(((1r,3r)-3-(4-(1-(4-((5-(2H-1,2,3-triazole-2-yl)pyrimidin-2-yl)oxy)phenyl)allyl)phenoxy)cyclobutyl)amino)-2-(2,6-dioxopiperidin-3-yl)isoindolin-1,3-dione]
9 | 11 to 100 nM | 5000 to 30000 ng·h/mL |  | CC(C)(c1ccc(OCc2cccc(-n3ccnn3)n2)cc1)c1ccc(O[C@H]2C[C@H](Nc3ccc4c(c3)C(=O)N(C3CCC(=O)NC3=O)C4=O)C2)cc1 (some centres unmarked) [Example 415]
10 |  | 5000 to 30000 ng·h/mL | > 2000 nM | CC(C)(c1ccc(O)cc1)c1ccc(OCCCCCCCCOCCCCNc2ccc3c(c2)C(=O)N(C2CCC(=O)NC2=O)C3=O)cc1 (centres unmarked) [Example 438, 2-(2,6-dioxopiperidin-3-yl)-5-((4-((8-(4-(2-(4-hydroxylphenyl)propan-2-yl)phenoxy)octyl)oxy)butyl)amino)isoindolin-1,3-dione]
11 | 11 to 100 nM | 100 to 1000 ng·h/mL |  | CC(C)(c1ccc(OCc2ccnc(-n3cc(F)cn3)n2)cc1)c1ccc(O[C@H]2C[C@@H](Nc3ccc4c(c3)C(=O)N(C3CCC(=O)NC3=O)C4=O)C2)cc1 (some centres unmarked) [Example 460]
12 | 11 to 100 nM | 5000 to 30000 ng·h/mL |  | Cc1nnc(-c2cnc(Oc3ccc(C(C)(C)c4ccc(O[C@H]5C[C@H](Nc6ccc7c(c6)C(=O)N(C6CCC(=O)NC6=O)C7=O)C5)cc4)cc3)nc2)o1 (some centres unmarked) [Example 475, 2-(2,6-dioxopiperidin-3-yl)-5-(((1r,3r)-3-(4-(2-(4-((5-(5-methyl-1,3,4oxadiazol-2-yl)pyrimidin-2-yl)oxy)phenyl)propan-2-yl)phenoxy)cyclobutyl)amino)isoindolin-1,3-dione]

Row | SMILES | DC50 ([1]; class symbols) | AUC(0-inf) [2] | DC50 ([1]; numeric values)
13 | CC(C)(c1ccc(OCc2ccnc(N3CC4(COC4)C3)n2)cc1)c1ccc(OC2CN(Cc3ccc4c(c3)C(=O)N(C3CCC(=O)NC3=O)C4=O)C2)cc1 (centres unmarked) [Example 148] | 101 to 1000 nM | 1000 to 5000 ng·h/mL | 
